Measurements from PMC10906247, “From Functional Fatty Acids to Potent and Selective Natural-Product-Inspired Mimetics via Conformational Profiling” (ACS Central Science, 2024).
Like-named read-outs stand apart in the source and are kept apart here.

Tests used:
[1] = target: GPR40 (FFAR1) (Homo sapiens, UniProt O14842); assay: PathHunter β-arrestin assay (Eurofins Discovery), GPR40; type: cell-based
Experimental: (§1) With these compounds in hand, attention was directed at evaluating their properties as ligands to GPR40, GPR120,[24] and TLX. Initial profiling experiments were conducted targeting the GPCR targets at a single concentration (15 μM) in a commercially available β-arrestin assay.
(§2) Functional assays at GPR40 and GPR120 were conducted by Eurofins Discovery services using their PathHunter® b-Arrestin assay that monitors the activation of a GPCR in a homogenous, non-imaging assay format using a technology developed by DiscoverX called Enzyme Fragment Complementation (EFC) with b-galactosidase (b-Gal) as the functional reporter. b-Arrestin GPCR cell lines built on the principles of EFC are engineered to co-express the ProLinkTM (PK) tagged GPCR and the Enzyme Acceptor (EA) tagged b-Arrestin. Activation of the GPCR-PK induces b-Arrestin-EA recruitment, forcing complementation of the two b-galactosidase enzyme fragments (EA and PK). The resulting functional enzyme hydrolyzes substrate to generate chemiluminescent […]
(§3) Additional information can be found at: www.eurofinsdiscovery.com/solution/b-arrestin Below are dose-response curves generated from Eurofins Discovery services for activity of ligands depicted in Figure 6B at GPR40 (FFAR1) and GPR120. […]

[2] = target: T1, GPR120 (Homo sapiens, UniProt Q5NUL3); assay: PathHunter β-arrestin assay (Eurofins Discovery), GPR120; type: cell-based
T1 sequence (Q5NUL3 1-361): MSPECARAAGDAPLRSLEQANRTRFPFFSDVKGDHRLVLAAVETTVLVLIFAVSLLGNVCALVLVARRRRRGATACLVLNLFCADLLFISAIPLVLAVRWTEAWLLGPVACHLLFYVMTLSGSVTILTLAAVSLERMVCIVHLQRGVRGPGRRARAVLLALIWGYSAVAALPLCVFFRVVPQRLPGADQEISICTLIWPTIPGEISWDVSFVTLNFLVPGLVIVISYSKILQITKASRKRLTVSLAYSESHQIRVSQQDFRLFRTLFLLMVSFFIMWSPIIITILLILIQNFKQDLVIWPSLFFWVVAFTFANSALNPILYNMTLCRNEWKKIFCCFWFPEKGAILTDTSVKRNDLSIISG
Experimental: as §1, §2, §3

[3] = target: T2, TLX ligand binding domain (Homo sapiens, UniProt Q9Y466); assay: TLX ligand sensing assay (AlphaScreen, RIP140 NR box peptide recruitment); type: biochemical
T2 construct: purchased NovAliX SAS, Strasbourg, France

[4] = test system: GPR40; conditions: oleic acid; stimulatory activity on CHO-mGPR40 cells; read-out: GPR40 EC50 historical; cited from earlier work
[5] = test system: MIN6 cells; design: method as in PMID 12629551, PMID 12496284; conditions: cited from earlier work
[6] = target: T1, GPR120; conditions: read-out: GPR120 EC50 historical; oleic acid; cited from earlier work
[7] = dose-response, oleic acid = 100

T2 sequence (Q9Y466 155-383 limits assumed): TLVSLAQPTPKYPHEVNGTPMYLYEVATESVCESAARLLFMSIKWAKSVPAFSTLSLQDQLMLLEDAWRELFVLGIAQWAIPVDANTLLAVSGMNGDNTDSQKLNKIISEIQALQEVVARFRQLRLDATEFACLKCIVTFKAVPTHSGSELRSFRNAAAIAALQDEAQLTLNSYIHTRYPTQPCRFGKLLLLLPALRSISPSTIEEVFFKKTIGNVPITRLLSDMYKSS
GPR40 (FFAR1), sequence (O14842 whole entry): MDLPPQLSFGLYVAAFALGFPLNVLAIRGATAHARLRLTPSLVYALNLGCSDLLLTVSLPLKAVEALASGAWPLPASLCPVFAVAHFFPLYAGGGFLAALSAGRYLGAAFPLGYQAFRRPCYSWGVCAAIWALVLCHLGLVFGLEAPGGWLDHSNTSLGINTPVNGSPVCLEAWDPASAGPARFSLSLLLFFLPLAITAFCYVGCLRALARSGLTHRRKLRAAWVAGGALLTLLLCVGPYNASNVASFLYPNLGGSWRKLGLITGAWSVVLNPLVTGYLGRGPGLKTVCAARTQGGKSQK

In the case of CCCCCCCC/C=C\CCCCCCCC(=O)O [oleic acid, reference compound], the EC50 ([1]; GPR40 EC50 measured) is reported as 37 µM, the GPR40 max. efficacy [1, 7] is reported as 100% and the “right shift of GPR40 result relative to reported historical activity” value ([1]; measured vs historical EC50) is reported as about 20 fold. For the same compound, the EC50 ([2]; GPR120 EC50 measured) was 15 µM, the GPR120 max. efficacy [2, 7] was 100% and the EC50 [3] was 3.55 µM. For the same compound, the “enhanced recruitment of a coactivator protein fragment” value [3] was 8.4 fold, the EC50 ([3]; ALPHA normalized, supplement, read-out: TLX EC50 (dose-response curves)) was 3.55 µM and the EC50 ([3]; coactivator recruitment, read-out: TLX EC50) was 3.6 µM. For the same compound, the TLX max. efficacy ([3]; oleic acid = 100) was 100%, the EC50 [4] was 2 µM and the “concentration inducing insulin secretion” value [5] was at least 1 µM. For the same compound, the EC50 [6] was 12 µM.
